Assay results as given in patent publication US20190125888A1, “TARGETED CONJUGATES AND PARTICLES AND FORMULATIONS THEREOF” (priority 2015, published 2019).
Like-named read-outs stand apart in the source and are kept apart here.

Experiments:
phospho-histone H3 = assay: Phospho-histone H3 response in NCI-H69 tumors; format: in vivo, mice
Procedure: Phospho-histone H3 response in NCI-H69 tumors was measured. […] At 24 hour, adjusted phospho-histone H3 response for Conjugate 6 was about 500 (fluorescence signal) and at 48 hour it was about 2300 (fluorescence signal).

[1] = test system: NCI-H524 (ATCC) human lung cancer cells; format: cell-based
Method in brief: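 NCI-H524 cells (5,000/well) exposed to conjugates for 6 hours, washed, then grown a further 66 hours; ten-point threefold dilutions from 20 μM. Proliferation by CellTiter-Glo versus vehicle; IC50 by four-parameter nonlinear regression, measured with and without octreotide competition.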

[2] = Pharmacokinetics study in mouse; details: in vivo
Procedure: Pharmacokinetics studies in mouse were also carried out. Half-life, Cmax and AUC values of Conjugate 6 were show in Table 10.

human NCI-H69 SCLC = assay: H69 xenograft efficacy study, tumor growth inhibition; format: in vivo, mice; details: for TGI % Day 11 / TGI % Day 14 / TGI % Day 18 / TGI % Day 21 / TGI % Day 25: 0.7 mg/kg once weekly for two doses
Procedure: Applicants assessed the activity of maytansinoid conjugates in vivo. In these experiments, the ability of conjugates to affect the growth of human NCI-H69 SCLC was tested. For the in vivo study, 8 week old female NCR nude mice were inoculated subcutaneously into the right flank with 2 million cells in 1:1 RPMI 1640 (Invitrogen, Carlsbad, Calif.)/Matrigel® (BD Biosciences, San Jose, Calif.). Tumor measurements were taken twice weekly, using vernier calipers. Tumor volume was calculated using the formula: V=0.5×width×width×length.
When tumors approached a volume of 200 mm^3, mice were randomized into four groups of ten animals. Mice were treated with vehicle control (10% propylene glycol in water for injection) and maytansinoid conjugates (10% propylene glycol in water for injection). Final tumor volumes were analyzed using with a one-way analysis of variance and Tukey multiple comparison test.

human SSTR2 = human SSTR2 (Homo sapiens, UniProt P30874); assay: Radioligand-receptor binding assay, [125I] somatostatin, membranes from SSTR2 expressing CHO-K1 cells
Method in brief: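 CHO-K1 SSTR2 membranes incubated 4 h with 0.03 nM [125I] somatostatin and conjugates in a 10-point, 6-fold series from 10 uM. Bound radioligand measured after filtration and washing; IC50 by non-linear least-squares regression.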

Half-life in rat plasma = format: in vitro ADME; details: read-out: rat plasma t½ (converted)
Procedure: (§1) Half-life (t1/2) of maytansinoid conjugates were measured in rat plasma and rat liver microsomes (LM). PK values of maytansinoid conjugates in NCI-H69 SCLC (small cell lung cancer) tumor cells were measured.

[3] = test system: NCI-H69 SCLC (small cell lung cancer) tumor cells; assay: H69 tumor PK; format: in vivo
Procedure: as §1

[4] = Chrom LogP of maytansinoid conjugates; format: physicochemical
[5] = Ligand charge of maytansinoid conjugates; format: physicochemical
[6] = Half-life in rat liver microsomes; format: in vitro ADME; details: read-out: rat LM t½ (mm)
Procedure: as §1

[7] = read-out: H524 IC50 6 h, 6 hours treatment, further 66 hours incubation
[8] = read-out: H524 IC50 with 100 μM octreotide 6 h, with 100 μM octreotide competition, 6 h treatment
[9] = 1.3 mg/kg once weekly for two doses
[10] = 2 mg/kg once weekly for two doses
[11] = 1.5 mg/kg once weekly for two doses

Chain of human SSTR2 (P30874 whole entry): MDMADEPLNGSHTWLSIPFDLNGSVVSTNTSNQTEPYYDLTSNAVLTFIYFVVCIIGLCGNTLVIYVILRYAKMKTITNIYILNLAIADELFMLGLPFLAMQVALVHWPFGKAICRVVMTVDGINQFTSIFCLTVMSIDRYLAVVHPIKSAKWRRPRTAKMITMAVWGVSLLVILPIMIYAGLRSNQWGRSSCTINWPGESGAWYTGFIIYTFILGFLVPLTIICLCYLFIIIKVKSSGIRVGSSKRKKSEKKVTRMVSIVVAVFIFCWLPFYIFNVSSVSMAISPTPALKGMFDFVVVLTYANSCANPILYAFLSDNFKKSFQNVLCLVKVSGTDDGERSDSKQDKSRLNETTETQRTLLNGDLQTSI

COc1cc2cc(c1Cl)N(C)C(=O)C[C@H](OC(=O)[C@H](C)N(C)C(=O)CCSSC(C)(C)[C@H](NC(=O)[C@@H]1CSSC[C@H](NC(=O)[C@H](N)Cc3ccccc3)C(=O)N[C@@H](Cc3ccc(O)cc3)C(=O)N[C@H](Cc3c[nH]c4ccccc34)C(=O)N[C@@H](CCCCN)C(=O)N[C@@H]([C@@H](C)O)C(=O)N1)C(N)=O)[C@]1(C)O[C@H]1[C@H](C)[C@@H]1C[C@@](O)(NC(=O)O1)[C@H](OC)/C=C/C=C(\C)C2 [Conjugate 6]
adjusted phospho-histone H3 response (phospho-histone H3; at 24 hour): about 500 fluorescence signal | adjusted phospho-histone H3 response (phospho-histone H3; at 48 hour): about 2300 fluorescence signal | IC50 [1, 7]: 13 nM | IC50 [1, 8]: 545 nM | AUC(0-inf) [2]: 4.45 µM·h | Cmax [2]: 3000 nM | half-life ([2]; read-out: t½ (converted)): 2.05 h | TGI % at day 33 (human NCI-H69 SCLC; 0.7 mg/kg once weekly for three doses, day 33): 31.9% | TGI % Day 11 (human NCI-H69 SCLC): 55% | TGI % Day 14 (human NCI-H69 SCLC): 60% | TGI % Day 18 (human NCI-H69 SCLC): 65% | TGI % Day 21 (human NCI-H69 SCLC): 69% | TGI % Day 25 (human NCI-H69 SCLC): 59% | TGI % Day 13 (human NCI-H69 SCLC; [9]): 69.1% | TGI % Day 17 (human NCI-H69 SCLC; [9]): 75.6% | TGI % Day 20 (human NCI-H69 SCLC; [9]): 76.8% | TGI % Day 24 (human NCI-H69 SCLC; [9]): 72.7% | TGI % Day 30 (human NCI-H69 SCLC; [9]): 72.1% | TGI % Day 13 (human NCI-H69 SCLC; [10]): 93.4% | TGI % Day 17 (human NCI-H69 SCLC; [10]): 96.2% | TGI % Day 20 (human NCI-H69 SCLC; [10]): 98.2% | TGI % Day 24 (human NCI-H69 SCLC; [10]): 99.5% | TGI % Day 30 (human NCI-H69 SCLC; [10]): 99.9% | TGI % at day 22 (human NCI-H69 SCLC; Dose 0.63 × 3 mg/kg, total dose 1.89 mg/kg): 47% | TGI % at day 22 (human NCI-H69 SCLC; Dose 0.65 × 2 mg/kg, total dose 1.3 mg/kg): 69% | TGI % at day 22 (human NCI-H69 SCLC; Dose 1.2 × 2 mg/kg, total dose 2.4 mg/kg): 77% | TGI % at day 22 (human NCI-H69 SCLC; Dose 2.0 × 2 mg/kg, total dose 4.0 mg/kg): 98% | Ki (human SSTR2): 0.021 nM | half-life (Half-life in rat plasma): 18.2 h | H69 tumor PK normalized- uM/umol/kg at 1 mpk in 10% PG [3]: Ca. 0.420 uM/umol/kg | chromatographic logP [4]: 2.06 | Ligand charge [5]: +2 | half-life [6]: 2.97 h

COc1cc2cc(c1Cl)N(C)C(=O)C[C@H](OC(=O)[C@H](C)N(C)C(=O)CCSSC(C)(C)[C@H](NC(=O)[C@@H]1CSSC[C@H](NC(=O)[C@@H](Cc3ccccc3)NS(C)(=O)=O)C(=O)N[C@@H](Cc3ccc(O)cc3)C(=O)N[C@H](Cc3c[nH]c4ccccc34)C(=O)N[C@@H](CCCCN)C(=O)N[C@@H]([C@@H](C)O)C(=O)N1)C(N)=O)[C@]1(C)O[C@H]1[C@H](C)[C@@H]1C[C@@](O)(NC(=O)O1)[C@H](OC)/C=C/C=C(\C)C2 [Conjugate 10]
IC50 [1, 7]: 3.3 nM | IC50 [1, 8]: 246 nM | TGI % Day 11 (human NCI-H69 SCLC): 48% | TGI % Day 14 (human NCI-H69 SCLC): 59% | TGI % Day 18 (human NCI-H69 SCLC): 54% | TGI % Day 21 (human NCI-H69 SCLC): 53% | TGI % Day 25 (human NCI-H69 SCLC): 42% | TGI % Day 13 (human NCI-H69 SCLC; [11]): 92.2% | TGI % Day 17 (human NCI-H69 SCLC; [11]): 95.6% | TGI % Day 20 (human NCI-H69 SCLC; [11]): 97.8% | TGI % Day 24 (human NCI-H69 SCLC; [11]): 99.5% | TGI % Day 30 (human NCI-H69 SCLC; [11]): 99.6% | TGI % at day 22 (human NCI-H69 SCLC; Dose 0.60 × 2 mg/kg, total dose 1.20 mg/kg): 53% | TGI % at day 22 (human NCI-H69 SCLC; Dose 1.54 × 2 mg/kg, total dose 3.08 mg/kg): 98% | Ki (human SSTR2): 0.035 nM | H69 tumor PK normalized- uM/umol/kg at 1 mpk in 10% PG [3]: 0.546 uM/umol/kg | chromatographic logP [4]: 2.66 | Ligand charge [5]: +1
